Reference: patent US9526802B2, “Nucleic acid complexes” (Purdue Research Foundation, priority 2012, dated 2016)

Columns and labels:
CHO-GFP cells = assay: Cell viability assay (1), MTS; format: cell-based
Procedure: FIG. 3 depicts cell viabilities of 1, 2, 3, Chol-PVA-PEG and Chol-PVA-PEG+1 host:guest pendant polymer complexes in CHO-GFP cells using 25 kD bPEI as control.
The cytotoxicity of the amino-CD derivatives in comparison with bPEI (25 kDa) was evaluated using the MTS assay in CHO-GFP cell lines. The relative cell viabilities were measured as a function of amine densities of the polymers. […] After 24 h, culture media were replaced with serum-free culture media containing increasing amine concentrations of amino-CD, polymer and the polymer:CD complexes and the cells were incubated for 24 h. After 24 h, 15 μl of MTS reagent was added to each well and incubated for 2 h. […] All experiments were conducted for three samples and averaged. […] In this study, LD50 was the concentration of a gene carrier at which the relative cell viability decreased to 50%.

pDNA = assay: Gel shift assay; format: binding; conditions: various N:P ratios, compared among 4, 5, 6
Procedure: The complexation ability of the systems was studied by gel shift assay. Agarose gels (1% w/v) containing ethidium bromide were made in 1× TE buffer. Transfection complexes were loaded onto the gel at various N:P ratios and 200 ng of DNA added to the wells. The gels were run at 50 V for about 1 h and visualized.
Also, in the absence of polymer, higher N:P ratios were used to condense pDNA effectively. […] This improved condensation capability of 6 relative to 4 and 5 can be attributed to the availability of both the nitrogens on the hydrazine moiety for interaction with pDNA.

Row | Structure (SMILES) | LD50 (CHO-GFP cells) [mM] | capacity for condensing pDNA (pDNA)
1 | CNCCN(C)C[C@H]1O[C@@H]2O[C@H]3[C@H](O)[C@@H](O)[C@@H](O[C@H]4[C@H](O)[C@@H](O)[C@@H](O[C@H]5[C@H](O)[C@@H](O)[C@@H](O[C@H]6[C@H](O)[C@@H](O)[C@@H](O[C@H]7[C@H](O)[C@@H](O)[C@@H](O[C@H]8[C@H](O)[C@@H](O)[C@@H](O[C@H]1[C@H](O)[C@H]2O)O[C@@H]8CO)O[C@@H]7CO)O[C@@H]6CO)O[C@@H]5CO)O[C@@H]4CO)O[C@@H]3CO [Compound 2, Mono-6-(N,N′-dimethylethane-1,2-diamine)-6-deoxy-β-cyclodextrin] | > 10 | –
2 | NNC[C@H]1O[C@@H]2O[C@H]3[C@H](O)[C@@H](O)[C@@H](O[C@H]4[C@H](O)[C@@H](O)[C@@H](O[C@H]5[C@H](O)[C@@H](O)[C@@H](O[C@H]6[C@H](O)[C@@H](O)[C@@H](O[C@H]7[C@H](O)[C@@H](O)[C@@H](O[C@H]8[C@H](O)[C@@H](O)[C@@H](O[C@H]1[C@H](O)[C@H]2O)O[C@@H]8CNN)O[C@@H]7CNN)O[C@@H]6CNN)O[C@@H]5CNN)O[C@@H]4CNN)O[C@@H]3CNN [Compound 6, hepta-6-hydrazyl-β-CD] | – | greatest capacity for condensing pDNA
